T1: Ss gluconate dehydratase (Saccharolobus solfataricus, UniProt Q97U27)
T1 sequence (Q97U27 1-395): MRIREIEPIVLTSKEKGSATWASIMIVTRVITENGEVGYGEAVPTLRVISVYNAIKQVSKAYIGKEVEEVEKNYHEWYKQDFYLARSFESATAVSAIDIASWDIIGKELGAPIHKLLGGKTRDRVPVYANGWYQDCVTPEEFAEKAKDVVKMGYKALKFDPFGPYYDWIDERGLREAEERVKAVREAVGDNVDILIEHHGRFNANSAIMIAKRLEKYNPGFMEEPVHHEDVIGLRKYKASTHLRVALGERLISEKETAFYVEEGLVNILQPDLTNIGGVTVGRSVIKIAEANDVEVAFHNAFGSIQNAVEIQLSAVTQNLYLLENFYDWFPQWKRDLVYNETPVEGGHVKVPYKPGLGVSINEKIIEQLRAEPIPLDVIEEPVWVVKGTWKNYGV


What was measured:
[1] = target: T1, Ss gluconate dehydratase; assay: Substrate specificities of Ss gluconate dehydratase (semicarbazide method); type: biochemical, Sulfolobus solfataricus; design: made in house; host or cells: Sulfolobus solfataricus cells (native source, not recombinant); settings: for Reaction on substrate / Relative activity (%): 10 mM aldonic acid, 1 mM CoCl2, 50 mM Tri-HCl buffer pH 7.0, 30 min, 78 C; for Relative activity (%): relative to D-gluconate
Experimental: (§1) The semicarbazide method was performed as follows: an enzyme reaction of a total volume a 400 μl was incubated at 78° C. in 50 mM Tris-HCl buffer, pH 7.0, with 10 mM gluconate and an enzyme solution. After 30 min, the enzyme reaction was stopped by the addition of 100 μl 2.0 M HCl. To this solution, 300 μl of semicarbazide solution (1.0% (w/v) semicarbazide hydrochloride and 1.5% (w/v) sodium acetate dissolved in distilled water) was added and incubated at 30° C. for 15 min. The final reaction mixture was diluted with 500 μl distilled water and then measured at 250 nm. The absorbance coefficient of the semicarbazone formation toward 2-keto-3-deoxy gluconate (KDG) was taken to be 0.571×10^3 M^−1 cm^−1.
(§2) For analysis of substrate specificities of gluconate dehydrates, a 10 mM solution of each aldonic acid containing carbon chains ranging from C4 to C7 were incubated together with 40 μg/mL of purified protein. […] All experiments were performed in three plicate.

[2] = target: T1, Ss gluconate dehydratase
Experimental: as §1, §2
Biochemical and kinetic parameters for the enzyme were determined using the assay method described above under standard conditions.
Values for Vmax and Km were determined from Lineweaver bulk plots. The rate dependence on substrate concentration followed Michaelis-Meten kinetics.

[3] = Temperature profile of enzyme activity; type: biochemical
Experimental: The temperature profile for enzyme activity was determined between 40 and 100° C.

[4] = type: physicochemical
Experimental: Enzyme thermostability was determined at 80, 90, and 100° C. by incubating enzyme solution (50 μg/ml) in 50 mM Tri-HCl (pH 7.2). At an appropriate time, samples were taken and completely cooled on ice and then measured for residual activities under standard conditions. The thermostability of purified gluconate dehydrates was measured at 80, 90, and 100° C.

Molecule | Reaction on substrate [1] | Relative activity (%) [1] | other results
OC[C@@H](O)[C@@H](O)[C@H](O)[C@@H](O)CO [D-glucitol] | No reaction on the following substrates: L-arabonate, D-xylonate, D-galacturonate, D-glucitol, D-mannonate, and D, L-glycerate. |  | 
O=C(O)C(O)CO [D, L-glycerate] | No reaction on the following substrates: L-arabonate, D-xylonate, D-galacturonate, D-glucitol, D-mannonate, and D, L-glycerate. |  | 
O=C(O)[C@@H](O)[C@@H](O)[C@H](O)[C@H](O)CO [D-mannonate] | No reaction on the following substrates: L-arabonate, D-xylonate, D-galacturonate, D-glucitol, D-mannonate, and D, L-glycerate. |  | 
O=C(O)[C@H](O)[C@@H](O)[C@H](O)CO [D-xylonate] | No reaction on the following substrates: L-arabonate, D-xylonate, D-galacturonate, D-glucitol, D-mannonate, and D, L-glycerate. |  | 
O=C[C@H](O)[C@@H](O)[C@@H](O)[C@H](O)C(=O)O [D-galacturonate] | No reaction on the following substrates: L-arabonate, D-xylonate, D-galacturonate, D-glucitol, D-mannonate, and D, L-glycerate. |  | 
L-isovalerate [D, L-isovalerate] |  | 0.25% | 
O=C(O)[C@H](O)[C@@H](O)[C@H](O)[C@H](O)CO [D-Gluconate] |  | 100.0% | Km ([2]; D-gluconate 0.1 to 40 mM as substrate, Lineweaver-Burk plots): 16.7 mM; turnover number (kcat) ([2]; D-gluconate as substrate): 333 s⁻¹; Vm ([2]; D-gluconate as substrate, Lineweaver-Burk plots): 34.5 units/mg; conversion ([1]; 10 mM substrate, 40 μg/mL purified protein, standard condition): 100%
O=C(O)[C@H](O)[C@@H](O)[C@@H](O)[C@H](O)CO [D-Galactonate] |  | 2.8% | 
O=C(O)[C@@H](O)[C@H](O)[C@H](O)CO [D-Arabonate] |  | 0.7% | 
O=C(O)[C@H](O)[C@@H](O)[C@@H](O)CO [L-arabonate] | No reaction on the following substrates: L-arabonate, D-xylonate, D-galacturonate, D-glucitol, D-mannonate, and D, L-glycerate. |  | 
D-Galactoheptonate |  | 1.6% | 
gluconate dehydratase: thermostable gluconate dehydratase purified from Sulfolobus solfataricus P2, SEQ ID NO:2, octamer (protein, listed as Sulfolobus solfataricus, octamer) MRIREIEPIVLTSKEKGSATWASIMIVTRVITENGEVGYGEAVPTLRVISVYNAIKQVSKAYIGKEVEEVEKNYHEWYKQDFYLARSFESATAVSAIDIASWDIIGKELGAPIHKLLGGKTRDRVPVYANGWYQDCVTPEEFAEKAKDVVKMGYKALKFDPFGPYYDWIDERGLREAEERVKAVREAVGDNVDILIEHHGRFNANSAIMIAKRLEKYNPGFMEEPVHHEDVIGLRKYKASTHLRVALGERLISEKETAFYVEEGLVNILQPDLTNIGGVTVGRSVIKIAEANDVEVAFHNAFGSIQNAVEIQLSAVTQNLYLLENFYDWFPQWKRDLVYNETPVEGGHVKVPYKPGLGVSINEKIIEQLRAEPIPLDVIEEPVWVVKGTWKNYGV |  |  | Enzyme activity below 60° C. [3]: not detectable; enzyme activity after incubation at 90° C. ([4]; 90° C., 2 hour incubation, 50 μg/ml enzyme in 50 mM Tri-HCl pH 7.2): below 50%; thermostability at 80° C. ([4]; pH 7.2): very stable over 2 hours

From patent publication US8383375B2 (Posco, priority 2004, dated 2013)
